Patent US20240002809A1, “FRACTAL CUES SUPPORT HIERARCHICAL MATURATION OF CELLS VIA CURVATURE-INDUCED PATTERNING” (The Governing Council of the University of Toronto, priority 2022, published 2024)

How the values were obtained:
Type in all cases: cell-based
[1] = tested on: human podocyte cell line on HF substrates; experiment: YAP inhibition study, Mosaic assay fractal dimension of whole cell morphology; settings: dose of 1 μM, in comparison to the inhibitor-free control, FIG. 13e
Procedure: Mosaic Assay: Mosaic Podo/Tert256 human podocytes (a mixture of GFP-labelled cells and non-fluorescent cells at a ratio of 1:11) were cultured and seeded in the same way as regular human podocytes as described above. At the study endpoint, cells were fixed with PFA, stained with rhodamine-wheat germ agglutinin (WGA), and mounted with DAPI-containing mounting media as described above. Samples were imaged via confocal microscopy using a Zeiss LSM 880 Super Resolution Confocal microscope to allow sufficient resolution to visualize interdigitated morphology. Z-stacked images spanning the entire section with visible signals were taken for each sample. The images were first processed using Zeiss's ZenDesk software to increase the contrast of GFP-positive cells' morphology as follows: the FITC channel was adjusted by setting gamma to 2.5 and adjusting the white point to 30. The DAPI channel's white point was adjusted to 80. In Photoshop or Fiji, the magic wand tool was used to select single fluorescent cells, create binary masks, and export binary images of single cells. Single cells were verified by overlaying nuclei with the cell images to ensure each cell only contained one nucleus. Binary images were then outlined in Fiji, and fractal analysis was performed using the FracLac plugin where the standard box-counting algorithm was used, with the background locked to white. […]

[2] = tested on: human podocyte cell line on HF substrates; experiment: Lactate dehydrogenase (LDH) release assay of Mosaic assay cells; settings: dose of 1 μM, FIG. 13d
Procedure: YAP Inhibition Study: HF and NT scaffolds were prepared as described above. Mosaic human podocytes were seeded on top of the scaffolds at a concentration of 50,000 cells/cm^2 (100,000 cells per scaffold). […] Samples were fixed on day 5. Media was collected and lactate dehydrogenase assay (LDH) assay (Cayman) was performed according to manufacturer's protocol to validate cell viability. Mosaic assay imaging and analysis were performed as described above.

[3] = tested on: Mosaic cells cultured on HF scaffolds; experiment: Mosaic assay Adriamycin dose test (fractal dimension of cell morphology); settings: 0.5 and 1 μg/mL ADR; only with Mosaic cells cultured on HF scaffolds (not NT); FIG. 6e, 6f
Excerpt: To develop the mosaic assay, populations of fluorescent cells were mixed with optically silent cells and monitored for over 14 days in the mouse cell line, and over 5 days in the human cell line. For long-term live cell labeling, adenovirus transduction of eGFP (Vector Biolabs, #1060) was utilized at an MOI of 1000 in the mouse podocyte cell line, and MOI of 10 in the human podocyte cell line. Cells were transduced one day after seeding and attachment, when cultures were 75% confluent. Virus handling protocols were used, including wearing additional disposable PPE (lab coat, shoe covers, elbow-length and double gloves, and face mask). […]
The next day, virus was removed and puromycin was applied at 8 μg/mL to select fluorescent cells for 48 hours. […] The mosaic assay was assessed using the Zeiss […] super resolution confocal microscope to allow sufficient resolution to see interdigitating foot processes. […]
Images of single fluorescent cells from the mosaic assay (used in topography, model virus, Adriamycin, and patient serum experiments) were first processed using Zeiss's ZenDesk software to facilitate delineation of whole single cell morphology as follows: the FITC channel was adjusted by setting gamma to 2.5 and adjusting the white point to 30. […] The sequence was recorded as a macro to facilitate automation and thus performed blindly and equivalently to all sample images. […]

Molecule | Df of podocyte morphology [1] | cell viability (LDH release) [2] | injury response: fractal dimension of cell morphology [3]
Verteporfin | decreased significantly | did not show any significant deterioration of cell viability | 
COc1cccc2c1C(=O)c1c(O)c3c(c(O)c1C2=O)C[C@@](O)(C(=O)CO)C[C@@H]3O[C@H]1C[C@H](N)[C@H](O)[C@H](C)O1 [Adriamycin, doxorubicin] |  |  | reduced fractal dimension of cell morphology
